The target in assay [1] is T1, PTP1B catalytic domain, C215S (Homo sapiens, UniProt P18031, C215S).
T1 sequence (P18031 1-229 C215S): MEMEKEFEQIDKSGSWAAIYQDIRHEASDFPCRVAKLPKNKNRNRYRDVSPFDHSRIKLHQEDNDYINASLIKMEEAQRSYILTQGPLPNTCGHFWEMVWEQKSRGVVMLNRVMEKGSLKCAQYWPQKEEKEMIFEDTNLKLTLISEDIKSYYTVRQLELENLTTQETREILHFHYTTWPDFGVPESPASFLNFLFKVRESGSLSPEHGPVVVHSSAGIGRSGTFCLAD
The experiment in a line: biochemical. Type of assay: binding. As to conditions: competitive FP titration vs CF-ppIRS1 100 nM, protein fixed, unlabelled peptide varied; n = 3 technical replicates. The source says:
(§1) The two SH2 domains of PI3KR1 (UniProt P27986; nSH2: 321−433 cSH2: 614–724) were cloned from HEK293T cDNA pool, and subsequently ligated into a modified pET vector encoding maltose binding protein (MBP) tag on the N-terminal and a hexa-His tag on the C-terminal end of the construct. Similarly, the catalytic, tyrosine phosphatase domains of PTPRε (P23469 first domain: 107–399) and PTP1B (P18031; 1–229) were cloned from a HEK293T cDNA pool, and inserted into a pBH4 vector encoding an N-terminal His6 tag (for the final binding experiments, an MBP-tagged version of PTPRε was employed). […] Wild-type C-terminal FLAG-tagged human IRS1 was cloned between HindIII-NotI sites of pcDNA3.1(+) vector (#V79020 Invitrogen, Waltham MA USA). Ser/Ala mutant IRS1 was generated by replacing the region of S616/S636/S666/S736 positions with a cassette carrying S616A/S636A/S666A/S736A mutations. All constructs were validated by complete Sanger sequencing before protein expression and purification. The oligonucleotide sequences used are shown on Supplementary table 4.
(§2) Fluorescence polarization was always measured in triplicates, on black Corning low volume round bottom 384-well plates (with 10 ul volumes), using a BioTek Cytatation 5 reader, with the green fluorescent protein (GFP) cube filter set (ex: 485/20, em: 528/20, gain: 50, height: 7.5). Fluorescence polarization data was evaluated on Origin 2018. The dissociation constants (Kd) were determined by using the appropriate quadratic and cubic equations inserted as a user-defined function and applying nonlinear fit until convergence. The fitting formulae are shown at Supplementary note 1. Kd ratio distributions for Fig. 6 were calculated using a Monte-Carlo approach (Supplementary note 2).
(§3) Supplementary note 1. Curve fitting of fluorescence polarization (FP) measurements.
(§4) To evaluate polarization values from direct and competitive titrations, we used the following fitting formulae in Origin 2018, as detailed below.
(§5) Direct titration curves were fitted according to the following formula: […]
(§6) Where Imin is the minimal anisotropy, Imax is the (asymptotically estimated) maximal intensity. K0 is the starting concentration of the protein, while T0 is the (fixed) concentration of the labelled peptide and Kd is the dissociation constant.
(§7) Competitive titration curves were fitted with a different formula (In addition to those defined above, constants KdT KdB B0 T0 and D0 here refer to the Kd derived from the direct titration, the unknown Kd of the analyte, the labelled peptide concentration, the competitor peptide concentration as well as the protein concentration, respectively).
(§8) The ± sign refers to two different scenarios, depending on the sign of discriminant (KdT > KdB or […]). For unknown analytes, the choice of sign is not arbitrary, as the fitting will not converge unless the appropriate formula is chosen: […]
(§9) Where A, B and C correspond to the following expressions: […]

Assay [2] addresses T2, PTPRε first phosphatase domain, C335S (Homo sapiens, UniProt P23469, C335S).
T2 construct: PTPRε (P23469 first domain: 107–399); MBP; made in house; host or cells: E. coli BL21 (DE3)
The experiment in a line: biochemical. Type of assay: binding. As to conditions: competitive FP titration vs CF-ppIRS1 100 nM, protein fixed, unlabelled peptide varied; n = 3 technical replicates.
Description: as §1, §2, §3, §4, §5, §6, §7, §8, §9

T2 sequence (P23469 107-399 C335S): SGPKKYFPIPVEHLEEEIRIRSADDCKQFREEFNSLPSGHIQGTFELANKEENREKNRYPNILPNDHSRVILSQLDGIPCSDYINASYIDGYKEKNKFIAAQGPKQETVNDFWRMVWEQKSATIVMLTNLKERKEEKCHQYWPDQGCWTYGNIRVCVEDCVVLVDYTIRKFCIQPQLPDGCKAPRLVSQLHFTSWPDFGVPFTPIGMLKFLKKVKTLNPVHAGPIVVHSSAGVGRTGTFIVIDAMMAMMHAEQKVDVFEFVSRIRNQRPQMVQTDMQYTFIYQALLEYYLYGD

In the case of `CSCC[C@H](NC(=O)[C@@H]1CCCN1C(=O)[C@H](CCSC)NC(=O)[C@H](Cc1ccc(OP(=O)(O)O)cc1)NC(=O)[C@H](CC(=O)O)NC(=O)CNC(=O)[C@H](CO)NC(=O)CNC(=O)[C@H](CCCCN)NC(=O)[C@H](CCCNC(=N)N)NC(=O)CN)C(=O)N[C@@H](COP(=O)(O)O)C(=O)N1CCC[C@H]1C(=O)N[C@@H](CCCCN)C(=O)N[C@@H](CO)C(=O)O` [ppIRS1], the dissociation constant Kd in assay [1] was found to be 0.0613 ± 0.0102 µM; in assay [2], 16.5 ± 1.7 µM.

In assay [2], `CSCC[C@H](NC(=O)[C@H](Cc1ccc(OP(=O)(O)O)cc1)NC(=O)[C@H](CC(=O)O)NC(=O)[C@H](CO)NC(=O)[C@H](Cc1c[nH]cn1)NC(=O)[C@H](CC(C)C)NC(=O)[C@H](CC(C)C)NC(=O)[C@H](CCCNC(=N)N)NC(=O)[C@H](CO)NC(=O)[C@@H](N)CCCNC(=N)N)C(=O)N[C@@H](CC(N)=O)C(=O)N[C@@H](CCSC)C(=O)N[C@H](C(=O)N1CCC[C@H]1C(=O)N[C@@H](CCCNC(=N)N)C(=O)N[C@@H](CCCNC(=N)N)C(=O)O)[C@@H](C)O` [p0CD28] had a Kd of 1.18 ± 0.1 µM.

The molecule `CSCC[C@H](NC(=O)[C@H](Cc1ccc(OP(=O)(O)O)cc1)NC(=O)[C@H](CC(=O)O)NC(=O)[C@H](CO)NC(=O)[C@H](Cc1c[nH]cn1)NC(=O)[C@H](CC(C)C)NC(=O)[C@H](CC(C)C)NC(=O)[C@H](CCCNC(=N)N)NC(=O)[C@H](CO)NC(=O)[C@@H](N)CCCNC(=N)N)C(=O)N[C@@H](CC(N)=O)C(=O)N[C@@H](CCSC)C(=O)N[C@H](C(=O)N1CCC[C@H]1C(=O)N[C@@H](CCCNC(=N)N)C(=O)N[C@@H](CCCNC(=N)N)C(=O)O)[C@@H](C)OP(=O)(O)O` [ppCD28] returned a Kd in assay [2] of 1.24 ± 0.08 µM.

Regarding `CSCC[C@H](NC(=O)[C@@H]1CCCN1C(=O)[C@H](CCSC)NC(=O)[C@H](Cc1ccc(OP(=O)(O)O)cc1)NC(=O)[C@H](CC(=O)O)NC(=O)CNC(=O)[C@H](CO)NC(=O)CNC(=O)[C@H](CCCCN)NC(=O)[C@H](CCCNC(=N)N)NC(=O)CN)C(=O)N[C@@H](CO)C(=O)N1CCC[C@H]1C(=O)N[C@@H](CCCCN)C(=O)N[C@@H](CO)C(=O)O` [p0IRS1], the Kd in assay [1] was 1.14 ± 0.0851 µM; in assay [2], 36 ± 2.44 µM.

Values taken from PMC9481563, “Structural insights into the pSer/pThr dependent regulation of the SHP2 tyrosine phosphatase in insulin and CD28 signaling” (Nature Communications, 2022).
